Laboratory results taken from ChEMBL document CHEMBL3259626, “Discovery of the first potent and selective Mycobacterium tuberculosis Zmp1 inhibitor” (Bioorg Med Chem Lett, 2014).

Key:
[1] = Competitive inhibition of full length Mycobacterium tuberculosis recombinant ZMP1 expressed in Escherichia coli BL21(DE3) using MCA-Pro-Leu-Gly-Leu-Dpa-Ala-Arg-NH2 as substrate by sigma plot analysis
[2] = system: Mycobacterium tuberculosis; test: Inhibition of full length Mycobacterium tuberculosis recombinant ZMP1 expressed in Escherichia coli BL21(DE3) using MCA-Pro-Leu-Gly-Leu-Dpa-Ala-Arg-NH2 as substrate at 100 uM by fluorometric analysis relative to control
[3] = Selectivity index, ratio of Ki for human neprilysin to Ki for full length Mycobacterium tuberculosis recombinant ZMP1
Neprilysin = Neprilysin (Homo sapiens, UniProt P08473); test: Inhibition of human neprilysin by fluorometric analysis
Neprilysin, sequence (P08473 whole entry): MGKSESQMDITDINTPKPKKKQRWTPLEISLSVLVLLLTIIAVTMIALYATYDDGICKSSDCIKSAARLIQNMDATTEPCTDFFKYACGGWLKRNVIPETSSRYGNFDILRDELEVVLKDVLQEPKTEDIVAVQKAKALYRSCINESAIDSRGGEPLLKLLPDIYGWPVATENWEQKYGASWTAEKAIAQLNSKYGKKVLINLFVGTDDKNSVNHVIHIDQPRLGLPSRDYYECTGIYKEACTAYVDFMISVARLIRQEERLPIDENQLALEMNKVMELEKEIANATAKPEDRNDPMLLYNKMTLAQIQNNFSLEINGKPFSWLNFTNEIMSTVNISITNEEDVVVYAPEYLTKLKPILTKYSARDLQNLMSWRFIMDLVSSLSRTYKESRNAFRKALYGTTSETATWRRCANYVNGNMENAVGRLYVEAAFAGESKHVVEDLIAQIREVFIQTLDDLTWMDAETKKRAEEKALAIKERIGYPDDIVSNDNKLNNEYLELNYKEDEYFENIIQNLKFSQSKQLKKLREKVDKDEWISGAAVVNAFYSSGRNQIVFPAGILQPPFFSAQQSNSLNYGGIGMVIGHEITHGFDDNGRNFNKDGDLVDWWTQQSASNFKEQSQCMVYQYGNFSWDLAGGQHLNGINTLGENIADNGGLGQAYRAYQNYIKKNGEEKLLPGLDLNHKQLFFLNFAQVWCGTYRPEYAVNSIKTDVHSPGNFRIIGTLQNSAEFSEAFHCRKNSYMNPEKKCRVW

Work on O=C(O)CCC(C(=O)O)N1C(=O)/C(=C\c2ccc(-c3cccc(Cl)c3Cl)o2)SC1=S (stereo not drawn) yielded a Ki [1] of 3.7 µM.

C=Cc1[nH]c(C(C)NC(=O)c2ccc(=O)n(CC(=O)NCc3ccc(F)cc3)c2)nc1C (stereo not drawn) gave an inhibition [2] of 16%.

O=C1/C(=C\c2ccc(-c3cccc([N+](=O)[O-])c3)o2)SC(=S)N1CCS(=O)(=O)O showed a Ki [1] of 32.2 µM.

In the case of COC(=O)c1ccc(/C=C2\SC(=S)N([C@H](Cc3ccccc3)C(=O)O)C2=O)cc1, the Ki [1] is reported as 5.7 µM.

In the case of O=C(O)c1ccc(/C=C2/SC(=S)N([C@H](Cc3ccccc3)C(=O)O)C2=O)cc1, the Ratio Ki [3] is reported as 266, the Ki (Neprilysin) is reported as 25 µM and the Ki [1] is reported as 0.094 µM.

With O=C(O)CC(C(=O)O)N1C(=O)/C(=C\c2ccc(O)c(O)c2)SC1=S (stereo not drawn) the Ki [1] was 2.7 µM.

With O=C(OCc1ccccc1)c1ccc(/C=C2\SC(=S)N([C@H](Cc3ccccc3)C(=O)O)C2=O)cc1 the Ki [1] was 1.8 µM.

Work on O=C(O)CN1C(=O)/C(=C2/Sc3ccccc3N2CCCS(=O)(=O)O)SC1=S yielded a Ki [1] of 4.8 µM.

With O=C(NC(Cc1ccccc1)C(=O)O)/C(=C/c1cccc([N+](=O)[O-])c1)NC(=O)c1ccco1 (stereo not drawn) the inhibition [2] was 54%.

Cn1c(=O)c2c(nc(SCC(=O)O)n2Cc2ccc(Cl)cc2)n(C)c1=O gave an inhibition [2] of 28%.

Molecule O=S(=O)(O)CCCSc1sc2ccc(Cl)cc2[n+]1CCCS(=O)(=O)O has an inhibition [2] of 78% and a Ki [1] of 32.9 µM.

With O=C(O)c1ccc(/C=C2/SC(=S)N(C(Cc3ccccc3)C(=O)O)C2=O)cc1 (racemic) the Ki [1] was 0.39 µM.

O=C(O)c1ccc(/C=C2/SC(=S)N([C@@H](Cc3ccccc3)C(=O)O)C2=O)cc1 gave a Ratio Ki [3] of 21.7, a Ki (Neprilysin) of 37 µM and a Ki [1] of 1.7 µM.
